Experimental findings from patent US8404708B2, “Dual NK1/NK3 receptor antagonists” (Hoffmann-La Roche Inc., priority 2004, dated 2013) are described below.

The target of one assay is human NK1 receptor (Homo sapiens, UniProt P25103). The experiment in a line: NK1 receptor binding, [3H]substance P displacement, CHO cell membranes.
In assay [1] the target is T1, Recombinant human NK3 (hNK3) receptor (Homo sapiens, UniProt P29371).
T1 construct: expressed in transfected cells
T1 sequence (P29371 1-465): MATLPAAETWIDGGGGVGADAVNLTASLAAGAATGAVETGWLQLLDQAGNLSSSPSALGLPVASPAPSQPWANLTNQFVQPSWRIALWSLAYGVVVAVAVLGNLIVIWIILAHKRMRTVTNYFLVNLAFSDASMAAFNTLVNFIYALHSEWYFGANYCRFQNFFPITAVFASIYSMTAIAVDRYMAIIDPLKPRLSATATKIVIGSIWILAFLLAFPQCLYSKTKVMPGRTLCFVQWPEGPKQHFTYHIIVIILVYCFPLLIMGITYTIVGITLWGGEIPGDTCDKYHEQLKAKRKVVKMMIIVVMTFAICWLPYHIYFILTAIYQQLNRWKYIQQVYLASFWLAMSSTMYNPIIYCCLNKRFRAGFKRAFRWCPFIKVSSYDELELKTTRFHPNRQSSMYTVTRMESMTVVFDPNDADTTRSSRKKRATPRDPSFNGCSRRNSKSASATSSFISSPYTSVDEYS
The experiment in a line: NK3 receptor binding, [3H]SR142801 displacement, membrane preparations. In outline:
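Buffer: Tris-HCl 50 mM pH 7.4, BSA 0.1%, MnCl2 4 mM, phosphoramidon 1 μM. ~2.5 μg membrane/well, 90 min RT. NSB with SB222200 (10 μM). Vacuum filtration over 0.3% PEI-treated GF/C, cold Tris/BSA washes, scintillation count; duplicates, ≥2 experiments.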

The mark [2] stands for this setting: first value of the cell pKi NK1/NK3, human NK1 receptor, [3H]substance P.
The mark [3] stands for this setting: second value of the cell pKi NK1/NK3, hNK3 receptor, [3H]SR142801.
[4] abbreviates: first value of the cell NK1/NK3, read-out: pKi NK1 (converted).
Where [5] appears, read: second value of the cell NK1/NK3, read-out: pKi NK3 (converted).

SMILES strings stand for the structures. Where two headings read alike, the source gives them in different places.

Chain of human NK1 receptor (P25103 whole entry): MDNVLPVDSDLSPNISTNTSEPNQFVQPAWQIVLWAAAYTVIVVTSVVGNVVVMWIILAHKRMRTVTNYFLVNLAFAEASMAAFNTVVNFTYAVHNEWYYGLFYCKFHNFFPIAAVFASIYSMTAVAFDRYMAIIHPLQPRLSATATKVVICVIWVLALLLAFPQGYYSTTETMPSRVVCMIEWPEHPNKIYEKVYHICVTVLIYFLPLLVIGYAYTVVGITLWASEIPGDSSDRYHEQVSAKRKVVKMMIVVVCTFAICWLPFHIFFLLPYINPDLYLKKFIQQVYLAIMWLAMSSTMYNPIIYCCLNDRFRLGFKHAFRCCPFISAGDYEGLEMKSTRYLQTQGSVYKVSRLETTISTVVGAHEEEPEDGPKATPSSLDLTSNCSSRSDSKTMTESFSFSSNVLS

With `Cc1ccccc1-c1cc(N2C[C@H](O)C[C@H]2CO)ncc1N(C)C(=O)C(C)(C)c1cc(Cl)cc(Cl)c1` [Example 12, (2S,4R)-2-(3,5-Dichloro-phenyl)-N-[6-(4-hydroxy-2-hydroxymethyl-pyrrolidin-1-yl)-4-o-tolyl-pyridin-3-yl]-N-methyl-isobutyramide], the Ki was 1.12 nM at human NK1 receptor (setting [2]) and 1.38 nM in assay [1] (setting [3]).

Regarding `Cc1ccccc1-c1cc(N2CC(=O)C[C@H]2CO)ncc1N(C)C(=O)C(C)(C)c1cc(C(F)(F)F)cc(C(F)(F)F)c1` [Example 295, (S)-2-(3,5-Bis-trifluoromethyl-phenyl)-N-[6-(2-hydroxymethyl-4-oxo-pyrrolidin-1-yl)-4-o-tolyl-pyridin-3-yl]-N-methyl-isobutyramide], the Ki at human NK1 receptor (setting [4]) was 1.55 nM; in assay [1] (setting [5]), 1.66 nM.

For `Cc1cc(F)ccc1-c1cc(NCCO)ncc1N(C)C(=O)C(C)(C)c1cc(C(F)(F)F)cc(C(F)(F)F)c1` [Example 68, 2-(3,5-Bis-trifluoromethyl-phenyl)-N-[4-(4-fluoro-2-methyl-phenyl)-6-(2-hydroxy-ethylamino)-pyridin-3-yl]-N-methyl-isobutyramide], the Ki on human NK1 receptor (setting [2]) was 1.45 nM; in assay [1] (setting [3]) it was 3.24 nM.

In the case of `Cc1cc(F)ccc1-c1cc(N2[C@H](CO)CC[C@H]2CO)ncc1N(C)C(=O)C(C)(C)c1cc(C(F)(F)F)cc(C(F)(F)F)c1` [Example 198, (2S,5S)-N-[6-(2,5-Bis-hydroxymethyl-pyrrolidin-1-yl)-4-(4-fluoro-2-methyl-phenyl)-pyridin-3-yl]-2-(3,5-bis-trifluoromethyl-phenyl)-N-methyl-isobutyramide], the Ki at human NK1 receptor (setting [2]) was 1.78 nM; in assay [1] (setting [3]) it was 1.1 nM.

For the compound `CN(C(=O)C(C)(C)c1cc(C(F)(F)F)cc(C(F)(F)F)c1)c1cnc(N2C[C@@H](O)C[C@H]2CO)cc1-c1cccc(F)c1` [Example 251, (2S,4S)-2-(3,5-Bis-trifluoromethyl-phenyl)-N-[4-(3-fluoro-phenyl)-6-(4-hydroxy-2-hydroxymethyl-pyrrolidin-1-yl)-pyridin-3-yl]-N-methyl-isobutyramide], the Ki at human NK1 receptor (setting [4]) was 1.32 nM; in assay [1] (setting [5]), 8.91 nM.

For `COc1cc(Cl)cc(C(C)(C)C(=O)N(C)c2cnc(N3C[C@H](O)C[C@H]3CO)cc2-c2ccc(F)cc2C)c1` [Example 31, (2S,4R)-2-(3-Chloro-5-methoxy-phenyl)-N-[4-(4-fluoro-2-methyl-phenyl)-6-(4-hydroxy-2-hydroxymethyl-pyrrolidin-1-yl)-pyridin-3-yl]-N-methyl-isobutyramide], the Ki on human NK1 receptor (setting [2]) was 0.977 nM; in assay [1] (setting [3]), 1.66 nM.

For `CN(C(=O)C(C)(C)c1cc(C(F)(F)F)cc(C(F)(F)F)c1)c1cnc(N2C[C@H](O)C[C@H]2CO)cc1-c1ccccc1C=O` [Example 224, (2S,4R)-2-(3,5-Bis-trifluoromethyl-phenyl)-N-[4-(2-formyl-phenyl)-6-(4-hydroxy-2-hydroxymethyl-pyrrolidin-1-yl)-pyridin-3-yl]-N-methyl-isobutyramide], the Ki at human NK1 receptor (setting [4]) was 1.12 nM; in assay [1] (setting [5]) it was 1.51 nM.

Turning to `Cc1ccccc1-c1cc(N(CC(C)O)CC(C)O)ncc1N(C)C(=O)C(C)(C)c1cc(C(F)(F)F)cc(C(F)(F)F)c1` (stereo not drawn) [Example 121, N-{6-[Bis-(2-hydroxy-propyl)-amino]-4-o-tolyl-pyridin-3-yl}-2-(3,5-bis-trifluoromethyl-phenyl)-N-methyl-isobutyramide], the figures for the Ki (at human NK1 receptor (setting [2]); in assay [1] (setting [3])) were 2.88 nM and 11 nM, respectively.

Turning to `Cc1ccccc1-c1cc(N2CC(O)C2)ncc1N(C)C(=O)C(C)(C)c1cc(C(F)(F)F)cc(C(F)(F)F)c1` [Example 163, 2-(3,5-Bis-trifluoromethyl-phenyl)-N-[6-(3-hydroxy-azetidin-1-yl)-4-o-tolyl-pyridin-3-yl]-N-methyl-isobutyramide], the values for the Ki (on human NK1 receptor (setting [2]); in assay [1] (setting [3])) were 1.82 nM and 28.2 nM, respectively.

For the compound `CN(C(=O)C(C)(C)c1cc(C(F)(F)F)cc(C(F)(F)F)c1)c1cnc(N2C[C@@H](O)[C@@H](O)C2)cc1-c1ccccc1Cl` [Example 48, (3R,4S)-2-(3,5-Bis-trifluoromethyl-phenyl)-N-[4-(2-chloro-phenyl)-6-(3,4-dihydroxy-pyrrolidin-1-yl)-pyridin-3-yl]-N-methyl-isobutyramide], the values for the Ki (at human NK1 receptor (setting [2]); in assay [1] (setting [3])) were 0.537 nM and 8.71 nM, respectively.

Regarding `CCCN(CCO)c1cc(-c2ccccc2Cl)c(N(C)C(=O)C(C)(C)c2cc(C(F)(F)F)cc(C(F)(F)F)c2)cn1` [Example 56, 2-(3,5-Bis-trifluoromethyl-phenyl)-N-{4-(2-chloro-phenyl)-6-[(2-hydroxy-ethyl)-propyl-amino]-pyridin-3-yl}-N-methyl-isobutyramide], the values for the Ki (on human NK1 receptor (setting [2]); in assay [1] (setting [3])) were 4.57 nM and 5.25 nM, respectively.

For `Cc1ccccc1-c1cc(N2C[C@H](O)C[C@H]2CO)ncc1N(C)C(=O)C(C)(C)c1cc(C(F)(F)F)cc(C(F)(F)F)c1` [Example 216, (2S,4R)-2-(3,5-Bis-trifluoromethyl-phenyl)-N-[6-(4-hydroxy-2-hydroxymethyl-pyrrolidin-1-yl)-4-o-tolyl-pyridin-3-yl]-N-methyl-isobutyramide], the results for the Ki (on human NK1 receptor (setting [4]); in assay [1] (setting [5])) were 1.35 nM and 0.794 nM, respectively.

Take `CN(C(=O)C(C)(C)c1cc(C(F)(F)F)cc(C(F)(F)F)c1)c1cnc(N2CCC[C@@H]2CO)cc1-c1ccc(Cl)cc1Cl` [Example 94, (R)-2-(3,5-Bis-trifluoromethyl-phenyl)-N-[4-(2,4-dichloro-phenyl)-6-(2-hydroxymethyl-pyrrolidin-1-yl)-pyridin-3-yl]-N-methyl-isobutyramide]: the figures for the Ki (on human NK1 receptor (setting [2]); in assay [1] (setting [3])) were 4.27 nM and 14.8 nM, respectively.

On to `CN(C(=O)C(C)(C)c1cc(C(F)(F)F)cc(C(F)(F)F)c1)c1cnc(N2CC[C@H](O)[C@H]2CO)cc1-c1ccc(Cl)c(Cl)c1` [Example 268, (2R,3S)-2-(3,5-Bis-trifluoromethyl-phenyl)-N-[4-(3,4-dichloro-phenyl)-6-(3-hydroxy-2-hydroxymethyl-pyrrolidin-1-yl)-pyridin-3-yl]-N-methyl-isobutyramide], for which the Ki at human NK1 receptor (setting [4]) was 2.29 nM; in assay [1] (setting [5]), 2.4 nM.

Take `CN(C(=O)C(C)(C)c1cc(C(F)(F)F)cc(C(F)(F)F)c1)c1cnc(N2C[C@@H](O)C[C@H]2CO)cc1-c1ccc(Cl)c(Cl)c1` [Example 252, (2S,4S)-2-(3,5-Bis-trifluoromethyl-phenyl)-N-[4-(3,4-dichloro-phenyl)-6-(4-hydroxy-2-hydroxymethyl-pyrrolidin-1-yl)-pyridin-3-yl]-N-methyl-isobutyramide]: the Ki on human NK1 receptor (setting [4]) was 1.66 nM; in assay [1] (setting [5]), 6.17 nM.

With `CC(=O)N[C@H]1C[C@@H](CO)N(c2cc(-c3ccccc3Cl)c(N(C)C(=O)C(C)(C)c3cc(C(F)(F)F)cc(C(F)(F)F)c3)cn2)C1` [Example 40, (2S,4S)-N-[6-(4-Acetylamino-2-hydroxymethyl-pyrrolidin-1-yl)-4-(2-chloro-phenyl)-pyridin-3-yl]-2-(3,5-bis-trifluoromethyl-phenyl)-N-methyl-isobutyramide], the values for the Ki (on human NK1 receptor (setting [2]); in assay [1] (setting [3])) were 0.646 nM and 1.02 nM, respectively.

For the compound `CN(C(=O)C(C)(C)c1cc(C(F)(F)F)cc(C(F)(F)F)c1)c1cnc(NCCS(C)(=O)=O)cc1-c1ccccc1Cl` [Example 89, 2-(3,5-Bis-trifluoromethyl-phenyl)-N-[4-(2-chloro-phenyl)-6-(2-methanesulfonyl-ethylamino)-pyridin-3-yl]-N-methyl-isobutyramide], the Ki is 0.49 nM at human NK1 receptor (setting [2]) and 3.24 nM in assay [1] (setting [3]).

For the compound `COc1cc(Cl)cc(C(C)(C)C(=O)N(C)c2cnc(N3CCC[C@H]3CO)cc2-c2ccc(F)cc2C)c1` [Example 30, (S)-2-(3-Chloro-5-methoxy-phenyl)-N-[4-(4-fluoro-2-methyl-phenyl)-6-(2-hydroxymethyl-pyrrolidin-1-yl)-pyridin-3-yl]-N-methyl-isobutyramide], the Ki at human NK1 receptor (setting [2]) is 3.72 nM; in assay [1] (setting [3]), 3.55 nM.

In the case of `CN(C(=O)C(C)(C)c1cc(C(F)(F)F)cc(C(F)(F)F)c1)c1cnc(N2CC[C@H](O)[C@H]2CO)cc1-c1ccccc1Br` [Example 130, (2R,3S)-2-(3,5-Bis-trifluoromethyl-phenyl)-N-[4-(2-bromo-phenyl)-6-(3-hydroxy-2-hydroxymethyl-pyrrolidin-1-yl)-pyridin-3-yl]-N-methyl-isobutyramide], the Ki was 1.66 nM on human NK1 receptor (setting [2]) and 2.29 nM in assay [1] (setting [3]).

Consider `Cc1cc(F)ccc1-c1cc(N2CC(O)C2)ncc1N(C)C(=O)C(C)(C)c1cc(C(F)(F)F)cc(C(F)(F)F)c1` [Example 162, 2-(3,5-Bis-trifluoromethyl-phenyl)-N-[4-(4-fluoro-2-methyl-phenyl)-6-(3-hydroxy-azetidin-1-yl)-pyridin-3-yl]-N-methyl-isobutyramide], for which the Ki on human NK1 receptor (setting [2]) was 2.09 nM; in assay [1] (setting [3]) it was 18.6 nM.

Turning to `Cc1cc(F)ccc1-c1cc(N2CC=C[C@H]2CO)ncc1N(C)C(=O)C(C)(C)c1cc(C(F)(F)F)cc(C(F)(F)F)c1` [Example 157, (S)-2-(3,5-Bis-trifluoromethyl-phenyl)-N-[4-(4-fluoro-2-methyl-phenyl)-6-(2-hydroxymethyl-2,5-dihydro-pyrrol-1-yl)-pyridin-3-yl]-N-methyl-isobutyramide], the values for the Ki (at human NK1 receptor (setting [2]); in assay [1] (setting [3])) were 2.51 nM and 1.58 nM, respectively.
